This note sets out measurements from patent US20230348453A1, “HALOGENATED-HETEROARYL AND OTHER HETEROCYCLIC KINASE INHIBITORS, AND USES THEREOF” (iOmx Therapeutics AG, priority 2020, published 2023).

Structures are written as SMILES. Read-outs that look alike come from different tables or passages of the source.

One data set concerns the target CSF1R (Homo sapiens (Human), UniProt P07333). The data set is classed as biochemical. The following applies: Kinase Profiler.
The target in another data set is HCK (Homo sapiens (Human), UniProt P08631). The data set is classed as biochemical. The following applies: Kinase Profiler.
Data set [1] in a line: Human hepatocyte stability. The data set is classed as in vitro ADME. The following applies: human, hepatocytes.
A short description of data set [2]: Mouse hepatocyte stability. The data set is classed as in vitro ADME. The following applies: hepatocytes.
In the next data set the test system is KASUMI-1 cell line. As to the kind of experiment: Growth inhibition (GI50) of AML cell lines. The data set is classed as cell-based. The following applies: Homo sapiens, Kasumi 1; pMEF2C-positive; read-out: GI50 against KASUMI-1 cell line.
Another data set has as its system MV4-11 cell line. As to the kind of experiment: Growth inhibition (GI50) of AML cell lines. The following applies: Homo sapiens, MV4-11; pMEF2C-positive; read-out: GI50 against MV4-11 cell line. The data set is classed as cell-based.
The subject of data set [3] is SIK3 WT and KO MC38 clones. The experiment in a line: TNF-mediated killing of SIK3 wildtype vs SIK3 knockout MC38 clones (CTG). The data set is classed as cell-based, mouse. The following applies: sub-optimal TNF (<10 ng/ml), 72 h.
Method: The assay was performed as follows: MC38 SIK3 KO clones were generated using CRISPR. Cells were transfected with RNP complexes (Cas9+gRNA) containing gRNAS targeting SIK3 or non-targeting sequences (control). […] Subsequently, single cell clones were generated by limiting dilution. CRISPR-derived mutations in single clones were detected by next-generation sequencing and analysed using CRISPResso. Knockout and wildtype clones were selected and plated overnight. […] Cells treated with different concentrations of inhibitor but without TNF served as no TNF control. Cell viability was measured by CTG assay.
The target of data set [4] is T1, SIK3 (Homo sapiens (Human), UniProt Q9Y2K2).
For data set [5] the following is noted: in vivo, po, 30 mg/kg.
For data set [6] the following is noted: female, C57BL/6, mouse, in vivo, 7 days.
The next data set can be described thus: in vivo. The following applies: male, CD1, mouse, po, 30 mg/kg.
Data set [7] is described as follows: in vitro. The following applies: human, microsomes.
Data set [8] in a line: in vitro. The following applies: mouse, microsomes.
The target of data set [9] is T2, SIK2 (Homo sapiens (Human), UniProt Q9H0K1). The experiment in a line: SIK2 kinase inhibition (IC50). The following applies: read-out: Kinase: IC50 (nM) SIK2.
Data set [10] addresses T1, SIK3. As to the kind of experiment: SIK3 kinase inhibition (IC50).
Data set [11] in a line: Human plasma-protein binding.
The nature of data set [12]: Murine plasma protein binding.
A further data set deals with MDR1 (P-gp) (Homo sapiens (Human), UniProt P08183). As to the kind of experiment: MDR1-MDCK effective efflux assay. The following applies: dog; for efflux ratio: Table 5.1B.
Data set [13] addresses MDR1 pump (P-gp), MDCK-MDR1 cells (Homo sapiens (Human), UniProt P08183). The experiment in a line: MDR1-MDCK effective efflux assay. The following applies: Table 5.1B.
A short description of data set [14]: MDCK wild type permeability/efflux. The following applies: dog.
Data set [15] in a line: Screening PK in mice after 30 mg/kg po.
Data set [16] is described as follows: Metabolite profile in hepatocytes / in vivo.
From the text: Metabolites are identified using high-resolution mass spectrometry.
Data set [17] deals with MC38 colorectal carcinoma tumours. As to the kind of experiment: MC38 syngeneic mouse tumour model (Example 8.1). The following applies: MC38; 40 mg/Kg, BID po.
Data set [18] concerns HDAC4 phosphorylation in PANC-1 cells. As to the kind of experiment: HDAC4 phosphorylation (Meso Scale Discovery assay). The following applies: 10 ng/mL rHuTNF, 3 h.
The subject of data set [19] is MC38 murine tumour cell line. The experiment in a line: TNF-sensitised cell viability assay (CellTiter-Glo). The following applies: Mus musculus; for IC50: MC-38, read-out: MC38 IC50 (at 100 ng/mL rMuTNF).
Another data set has as its system HCT116 cells. Described as above. The following applies: Homo sapiens, HCT-116, read-out: HCT116 IC50 (at 10 ng/ml rHuTNF).
The test system of data set [20] is NFKB activity in PANC-1 cells. As to the kind of experiment: TNF-induced NFKB activity (NFKB-dependent luciferase reporter). The following applies: 10 ng/ml rHuTNF, PANC-1 reporter cells.
The subject of data set [21] is NFKB activity in MC38 cells. Described as above. The following applies: 10 ng/ml rMuTNF.
The target in another data set is ABL1 wt (Homo sapiens (Human), UniProt P00519). The data set is classed as biochemical.
Chain of ABL1 wt (P00519 118-535 limits assumed): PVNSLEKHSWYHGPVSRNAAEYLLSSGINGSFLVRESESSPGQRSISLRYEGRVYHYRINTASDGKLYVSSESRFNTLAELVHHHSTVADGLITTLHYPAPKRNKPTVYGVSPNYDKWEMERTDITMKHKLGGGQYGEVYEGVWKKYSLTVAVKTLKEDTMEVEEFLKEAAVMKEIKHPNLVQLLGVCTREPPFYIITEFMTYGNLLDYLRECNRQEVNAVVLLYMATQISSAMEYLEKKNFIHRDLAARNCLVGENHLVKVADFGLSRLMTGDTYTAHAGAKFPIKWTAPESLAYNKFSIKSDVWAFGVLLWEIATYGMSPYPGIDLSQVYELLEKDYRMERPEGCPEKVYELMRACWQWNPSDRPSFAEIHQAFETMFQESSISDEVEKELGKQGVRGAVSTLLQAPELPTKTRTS
The next data set addresses SRC (GST-HIS-tag) (Homo sapiens (Human), UniProt P12931). The data set is classed as biochemical.
For data set [22], the target named is T2, SIK2. The following applies: read-out: SIK2 IC50.
A further data set relates to PANC1 cells. As to the kind of experiment: TNF-sensitised cell viability assay (CellTiter-Glo). The following applies: Homo sapiens, PANC-1, read-out: PANC IC50 (at 100 ng/ml rHuNF). (Cellular ATP, detected with luciferase, serves as a proxy for viable cell number.)
Where [23] appears, read: total plasma concentration at 30 mg/kg p.o dose, fold of C7 (C7 = 1×).

Chain of CSF1R (P07333 20-972 limits assumed): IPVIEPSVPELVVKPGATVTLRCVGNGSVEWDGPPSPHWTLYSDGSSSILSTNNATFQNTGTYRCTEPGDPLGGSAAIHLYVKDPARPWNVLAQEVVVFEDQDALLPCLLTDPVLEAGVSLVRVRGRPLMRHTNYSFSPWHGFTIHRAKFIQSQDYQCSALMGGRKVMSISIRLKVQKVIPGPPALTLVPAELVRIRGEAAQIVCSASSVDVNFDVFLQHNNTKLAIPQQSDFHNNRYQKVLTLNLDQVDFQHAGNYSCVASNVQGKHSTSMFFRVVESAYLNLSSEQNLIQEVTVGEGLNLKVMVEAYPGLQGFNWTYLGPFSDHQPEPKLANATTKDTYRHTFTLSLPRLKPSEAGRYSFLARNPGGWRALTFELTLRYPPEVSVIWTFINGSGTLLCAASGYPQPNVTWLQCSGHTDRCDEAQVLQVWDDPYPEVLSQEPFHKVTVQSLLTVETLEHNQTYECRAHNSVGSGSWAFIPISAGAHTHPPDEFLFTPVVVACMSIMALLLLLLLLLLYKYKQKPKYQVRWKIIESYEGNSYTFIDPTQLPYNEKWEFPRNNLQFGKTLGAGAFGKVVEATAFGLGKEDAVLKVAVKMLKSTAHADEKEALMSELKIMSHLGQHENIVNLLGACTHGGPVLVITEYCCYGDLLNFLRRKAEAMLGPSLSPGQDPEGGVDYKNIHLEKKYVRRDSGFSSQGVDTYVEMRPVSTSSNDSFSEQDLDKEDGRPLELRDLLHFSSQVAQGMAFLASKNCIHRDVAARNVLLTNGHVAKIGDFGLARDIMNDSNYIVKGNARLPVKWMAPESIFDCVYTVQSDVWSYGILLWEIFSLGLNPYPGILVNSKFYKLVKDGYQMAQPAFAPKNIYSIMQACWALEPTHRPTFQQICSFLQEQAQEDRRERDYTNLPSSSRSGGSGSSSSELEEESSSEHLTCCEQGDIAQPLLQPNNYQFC

For the compound `Cc1nc(Nc2ncc(C(=O)Nc3c(C(F)F)csc3Cl)s2)cc(N2CCN(CCO)CC2)n1` [Compound E4, N-(2-chloro-4-(difluoromethyl)thiophen-3-yl)-2-((6-(4-(2-hydroxyethyl)piperazin-1-yl)-2-methylpyrimidin-4-yl)amino)thiazole-5-carboxamide], the CSF1R residual activity entry on CSF1R was “less than 1%”. For the same compound, the HCK residual activity entry on HCK is reported as “less than 1%”. Further, the half-life in data set [1] (read-out: Human hepatocyte stability, Half-life) was 1.07 h. For the same compound, the microsomal CLint in [1] (read-out: Human hepatocyte stability, Intrinsic clearance) amounted to 22 µL/min/mg. For the same compound, the half-life in [1] (read-out: half-life in the presence of human hepatocytes (converted)) is around 1 h. The half-life in data set [2] came to 1.3 h. Moreover, the microsomal CLint in [2] (read-out: Mouse hepatocyte stability, Intrinsic clearance) is 18 µL/min/mg. For the same compound, in the data set on KASUMI-1 cell line, the GI50 was below 0.0075 µM. Also, the 50% growth inhibitory concentration (GI50) with MV4-11 cell line was below 0.75 µM. Besides, the “TNF-mediated killing in SIK3 WT vs KO MC38 clones” value in data set [3] was “induced TNF-mediated killing only in SIK3 WT clones”. Also, on SIK3 [4] (fold of the value of compound C7 (C7 = 1×)), the “SIK3 IC50 (nM), relative to C7” value is on record as 0.6×. For the same compound, in data set [5] (male, CD1, mouse), the “% AUCextrap, Free” value came out at 0.31%; the “% AUCextrap, Total” value amounted to 0.31%; the “AUCinf (nM*h), Free” value worked out at 148.39 nM·h; the “AUClast (nM*h), Free” value worked out at 147.93 nM·h. In data set [5] (mouse), the “Rsq, Free” value is given as 0.90 and the “Rsq, Total” value is recorded as 0.90. Also, in data set [6], the “DLT@BID dosing” value is 60 to 80 mg/kg, the “DLT@QD dosing” value is given as “n.d. @80 mg/kg”, the “HRD in vivo @BID” value was determined as 33 mg/kg and the “HRD in vivo @QD” value is reported as 80 mg/kg. In the data set “in vivo”, the AUC(0-inf) amounted to 5.5 µM·h, the AUC(0-t) amounted to 5.48 µM·h, the peak level (Cmax) was 1240 ng/mL and the mean residence time MRT last is 5.88 h. Further, in “in vivo”, the Tmax was found to be 2 h and the half-life is 4.49 h. In “in vitro [7]”, this compound had a half-life of 0.367 h and a microsomal CLint of 65 µL/min/mg. In the data set “in vitro [8]”, this compound gave a half-life of 0.333 h and a microsomal CLint of 70 µL/min/mg. The IC50 at SIK2 [9] was below 20 nM. Besides, the IC50 at SIK3 [10] (read-out: Kinase: IC50 (nM) SIK3) was below 20 nM. Moreover, the “Human plasma-protein binding, Percentage unbound (%)” value in data set [11] (Table 5.1A) is recorded as below 1%. In addition, the recovery at 4 h in data set [11] (human, plasma) worked out at 77%. The “Murine plasma protein binding, Percentage unbound (%)” value in data set [12] (Table 5.1A) is given as 2%. The recovery at 4 h in data set [12] (mouse, plasma) was 80%. The same compound showed a Papp at MDR1 (P-gp) (MDCK-MDR1) of 3 ×10⁻⁶ cm/s. Moreover, the efflux ratio on MDR1 (P-gp) (MDCK-MDR1, MDCK-MDR1 cells, Mean Efflux Ratio (MDR1)) was in the range of 40 to 50. In addition, the efflux ratio on MDR1 (P-gp) (MDCK-MDR1, P-gP driven efflux ratio (MDR1/wt)) is 11. The “MDCK-MDR1 cells, Mean Efflux Ratio (MDR1)” value in [13] was 43. In addition, in data set [14], the apparent permeability (Papp) amounted to 5 ×10⁻⁶ cm/s and the efflux ratio was determined as 4.1. Moreover, in data set [15] (mice, 30 mg/kg po, 6 h), the “fold increase of concentration at 6 h compared to dasatinib” value stood at 3 fold. For the same compound, in data set [15] (mouse, in vivo), the “fold improvement of free serum concentration over C7” value was 5 fold and the “fold improvement of total serum concentration over C7” value is 9.6 fold. The same compound came in with a Cmax at 2 h in [15] (mouse, plasma, po, 30 mg/kg) of 1210 ng/mL. Further, the concentration at 6 h in data set [15] (mouse, plasma, po, 30 mg/kg, Free plasma concentration after 6 h (nM), mice, 30 mg/kg po, 6 h) is 17.9 nM. The concentration at 6 h in data set [15] (mouse, plasma, po, 30 mg/kg, Plasma concentration after 6 h (nM), mice, 30 mg/kg po, 6 h) stood at 662 nM. Further, in [15] (setting [23]), the “AUC0-last (nM*h), relative to C7” value is 4.7×; the “C max (ng/ml), relative to C7” value was 2.6×; the “MRT0-last (h), relative to C7” value is 2×; the “t1/2 (h), relative to C7” value is reported as 3.2×. For the same compound, the quinone-imine reactive metabolite entry in [16] was “not observed”. For the same compound, in data set [17], the “Body weight increase (%)” value came to 12.0%, the Non-treatment related death was 3/16 and the “Tumour growth inhibition (%)” value worked out at 64%. Further, the “Inhibition of HDAC4 phosphorylation” value in data set [18] is listed as “++”. Moreover, the IC50 in data set [19] was below 0.1 µM. The half-maximal effective concentration (EC50) in data set [19] (MC-38, read-out: mean EC50 of sensitising MC38 tumour cells to TNF-mediated killing) is below 0.1 µM. For the same compound, in the data set with HCT116 cells, the IC50 was below 0.1 µM. Further, the “Inhibition of NFKB activity (PANC-1)” value in data set [20] is on record as “++”. The “Inhibition of NFKB activity (MC38)” value in data set [21] was “++”.
Consider `Cc1nc(Nc2ncc(C(=O)Nc3c(Cl)ccnc3C)s2)cc(N2CCN(C)CC2)n1` [Compound C10], for which the IC50 at ABL1 wt is 0.0043 µM; against SRC (GST-HIS-tag) it was below 0.0015 µM; at SIK3 [4] (read-out: SIK3 IC50), 0.493 µM; at SIK2 [22], 0.138 µM.
For `Cc1nc(Nc2ncc(C(=O)Nc3c(C(F)F)csc3Cl)s2)cc(N2CCN(C)C(C)C2)n1` (racemic) [Compound E16, N-(2-chloro-4-(difluoromethyl)thiophen-3-yl)-2-((2-methyl-6-(3,4-dimethylpiperazin-1-yl)pyrimidin-4-yl)amino)thiazole-5-carboxamide], the IC50 on SIK2 [9] was below 20 nM; on SIK3 [10] it was 20 to 50 nM; in [19] it was below 0.1 µM; in the data set with HCT116 cells, below 0.1 µM; in the data set on PANC1 cells, below 0.1 µM.

A word on the half-life: it is the time needed for the level to fall by half in the phase considered. As a reminder, the GI50 is the concentration that inhibits growth by half. As usually defined, the AUC(0-inf) is total exposure, with the tail of the curve extrapolated. For orientation: AUC(0-t) means the area under the concentration-time curve up to a stated or last time point. High values mean high exposure, low ones low exposure. As usually defined, the Cmax is the peak of the concentration-time curve. As usually defined, the MRT last is a mean duration of stay, worked out from the concentration-time curve. Broadly, the Tmax is the time from dosing to the highest level. A word on the Papp: it is the rate of passage across a membrane or cell layer, normalised by area and donor concentration. High values mean ready permeation, low ones poor permeation. As usually defined, the efflux ratio is a quotient of directional permeabilities that is used to spot active efflux. Broadly, the EC50 is the concentration that produces a half-maximal response.
